The results in this text go back to patent US10287301B2 (Achillion Pharmaceuticals, Inc., priority 2015, dated 2019).

Usually IC50 stands for the concentration that gives 50% inhibition.

For one test, the target named is Human Factor D (Homo sapiens (Human), UniProt P00746). Briefly: Human Factor D Assay. It counts as biochemical.
Chain of Human Factor D (P00746 26-253): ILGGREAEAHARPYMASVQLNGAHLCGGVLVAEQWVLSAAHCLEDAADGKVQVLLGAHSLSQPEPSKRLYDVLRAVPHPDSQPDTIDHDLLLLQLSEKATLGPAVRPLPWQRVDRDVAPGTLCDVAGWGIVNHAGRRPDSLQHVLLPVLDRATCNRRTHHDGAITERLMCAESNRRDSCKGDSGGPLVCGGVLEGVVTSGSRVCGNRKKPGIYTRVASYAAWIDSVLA
Settings: not given
An outline of the steps:
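First, compound at various concentrations is mixed with 80 nM (final) human serum Factor D in 50 mM Tris, 1M NaCl, pH 7.5 for 5 min at room temperature.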
In turn, `CCc1cn(CC(=O)N2NCCC2C(=O)Nc2cccc(-c3ccccc3Cl)c2F)c2ccc(-c3cnc(C)nc3)cc12` (stereo not drawn) [Compound 267, N-(2′-chloro-2-fluorobiphenyl-3-yl)-2-(2-(3-ethyl-5-(2-methylpyrimidin-5-yl)-1H-indol-1-yl)acetyl)pyrazolidine-3-carboxamide] registered an IC50 of 1000 to 10000 nM.

Staying with this test, now noted: Human Factor D assay of Example 8; Table 2; read-out: IC50.
Take `CC(=O)c1nn(CC(=O)N2C[C@H](F)C[C@H]2C(=O)Nc2cccc(Br)n2)c2ccc(-c3cnc(C)nc3C)cc12` [Compound 266, (2S,4R)-1-(2-(3-acetyl-5-(2,4-dimethylpyrimidin-5-yl)-1H-indazol-1-yl)acetyl)-N-(6-bromopyridin-2-yl)-4-fluoropyrrolidine-2-carboxamide]: the IC50 was below 1000 nM.

In the case of `CC(=O)c1nn(CC(=O)N2C[C@H](F)C[C@H]2C(=O)Nc2cccc(Br)n2)c2ccc(-c3cnc4c(C)cnn4c3)cc12` [Compound 268, (2S,4R)-1-(2-(3-acetyl-5-(3-methylpyrazolo[1,5-a]pyrimidin-6-yl)-1H-indazol-1-yl)acetyl)-N-(6-bromopyridin-2-yl)-4-fluoropyrrolidine-2-carboxamide], the IC50 is below 1000 nM. `COCCNc1ncc(-c2ccc3c(c2)c(C(C)=O)nn3CC(=O)N2C[C@H](F)C[C@H]2C(=O)Nc2cccc(Br)n2)cn1` [Compound 269, (2S,4R)-1-(2-(3-acetyl-5-(2-(2-methoxyethylamino)pyrimidin-5-yl)-1H-indazol-1-yl)acetyl)-N-(6-bromopyridin-2-yl)-4-fluoropyrrolidine-2-carboxamide]: the IC50 is below 1000 nM. `CC(=O)c1nn(CC(=O)N2CC[C@@H](N)[C@H]2C(=O)Nc2cccc(Br)n2)c2ccc(-c3cnc(C)nc3)cc12` [Compound 270, (2S,3R)-1-(2-(3-Acetyl-5-(2-methylpyrimidin-5-yl)-1H-indazol-1-yl)acetyl)-3-amino-N-(6-bromopyridin-2-yl)pyrrolidine-2-carboxamide]: the half-maximal inhibitory concentration (IC50) was below 1000 nM. For the compound `CC(=O)c1nn(CC(=O)N2C(=O)CC[C@H]2C(=O)Nc2cccc(Br)n2)c2ccc(-c3cnc(C)nc3)cc12` [Compound 271, (S)-1-(2-(3-Acetyl-5-(2-methylpyrimidin-5-yl)-1H-indazol-1-yl)acetyl)-N-(6-bromopyridin-2-yl)-5-oxopyrrolidine-2-carboxamide], the IC50 is below 1000 nM. Same read-out and setting: for `CC(=O)c1nn(CC(=O)N2C[C@H](F)C[C@H]2C(=O)Nc2cccc(-c3c(F)c(F)c(F)c(F)c3F)c2F)c2ccc(-c3cnc(C)nc3)cc12` [Compound 272, (2S,4R)-1-(2-(3-acetyl-5-(2-methylpyrimidin-5-yl)-1H-indazol-1-yl)acetyl)-4-fluoro-N-(2,2′,3′,4′,5′,6′-hexafluorobiphenyl-3-yl)pyrrolidine-2-carboxamide] the value was below 1000 nM; for `CC(=O)c1nn(CC(=O)N2C[C@H](F)C[C@H]2C(=O)Nc2cccc(Br)c2F)c2ccc(-c3cnc(C)nc3)cc12` [Compound 273, (2S,4R)-1-(2-(3-acetyl-5-(2-methylpyrimidin-5-yl)-1H-indazol-1-yl)acetyl)-N-(3-bromo-2-fluorophenyl)-4-fluoropyrrolidine-2-carboxamide], below 1000 nM; for `CC(=O)c1nn(CC(=O)N2C[C@H](F)C[C@H]2C(=O)Nc2cccc(Br)n2)c2ccc(-c3cnc4cc(C(C)C)nn4c3)cc12` [Compound 274, (2S,4R)-1-(2-(3-acetyl-5-(2-isopropylpyrazolo [1,5-a]pyrimidin-6-yl)-1H-indazol-1-yl)acetyl)-N-(6-bromopyridin-2-yl)-4-fluoropyrrolidine-2-carboxamide], below 1000 nM. On the same count and under the same terms, under `COc1cccc(NC(=O)[C@@H]2C[C@@H](F)CN2C(=O)Cn2nc(C(C)=O)c3cc(-c4cnc5cc(C)nn5c4)ccc32)c1F` [Compound 275, (2S,4R)-1-(2-(3-acetyl-5-(2-methylpyrazolo[1,5-a]pyrimidin-6-yl)-1H-indazol-1-yl)acetyl)-4-fluoro-N-(2-fluoro-3-methoxyphenyl) pyrrolidine-2-carboxamide] stands below 1000 nM. Take `CC(=O)c1cn(CC(=O)N2C[C@H](F)C[C@H]2C(=O)Nc2cccc(OC(F)(F)F)c2F)c2ccc(-c3cnc4cc(C)nn4c3)cc12` [Compound 276, (2S,4R)-1-(2-(3-acetyl-5-(2-methylpyrazolo[1,5-a]pyrimidin-6-yl)-1H-indol-1-yl)acetyl)-4-fluoro-N-(2-fluoro-3-(trifluoromethoxy)phenyl)pyrrolidine-2-carboxamide]: the IC50 is below 1000 nM. In the case of `CC(=O)c1cn(CC(=O)N2C[C@H](F)C[C@H]2C(=O)Nc2cccc(Br)n2)c2ccc(-c3cnc4cc(C)nn4c3)cc12` [Compound 277, (2S,4R)-1-(2-(3-acetyl-5-(2-methylpyrazolo[1,5-a]pyrimidin-6-yl)-1H-indol-1-yl)acetyl)-N-(6-bromopyridin-2-yl)-4-fluoropyrrolidine-2-carboxamide], the concentration for half-maximal inhibition (IC50) is below 1000 nM. Still for that read-out and setting: under `Cc1ncc(-c2cc3c(C(N)=O)nn(CC(=O)N4C[C@H](F)C[C@H]4C(=O)Nc4cccc(Br)n4)c3cn2)cn1` [Compound 278, 1-(2-((2S,4R)-2-(6-bromopyridin-2-ylcarbamoyl)-4-fluoropyrrolidin-1-yl)-2-oxoethyl)-5-(2-methylpyrimidin-5-yl)-1H-pyrazolo[3,4-c]pyridine-3-carboxamide] stands below 1000 nM; under `C=CCCCCCCCCCNc1ncc(-c2ccc3c(c2)c(C(C)=O)nn3CC(=O)N2C[C@H](F)C[C@H]2C(=O)NCc2cc(C=C)cc(Cl)c2F)cn1` [Compound 279, (2S,4R)-1-(2-(3-acetyl-5-(2-(undec-10-enylamino)pyrimidin-5-yl)-1H-indazol-1-yl)acetyl)-N-(3-chloro-2-fluoro-5-vinylbenzyl)-4-fluoropyrrolidine-2-carboxamide], above 10000 nM. Still for that read-out and setting: for `CC(=O)c1nn(CC(=O)N2C[C@H](F)C[C@H]2C(=O)Nc2cccc(OC(F)F)c2F)c2ccc(-c3cnc4cc(C)nn4c3)cc12` [Compound 281, (2S,4R)-1-(2-(3-acetyl-5-(2-methylpyrazolo[1,5-a]pyrimidin-6-yl)-1H-indazol-1-yl)acetyl)-N-(3-(difluoromethoxy)-2-fluorophenyl)-4-fluoropyrrolidine-2-carboxamide] the value was below 1000 nM. On the same count and under the same terms, for `CC(=O)c1nn(CC(=O)N2C[C@H](F)C[C@H]2C(=O)Nc2cccc(OC(F)F)c2F)c2ccc(-c3cnc4ccnn4c3)cc12` [Compound 282, (2S,4R)-1-(2-(3-acetyl-5-(pyrazolo[1,5-a]pyrimidin-6-yl)-1H-indazol-1-yl)acetyl)-N-(3-(difluoromethoxy)-2-fluorophenyl)-4-fluoropyrrolidine-2-carboxamide] the value was below 1000 nM; for `Cc1cc2ncc(-c3cc4c(C(N)=O)nn(CC(=O)N5C[C@H](F)C[C@H]5C(=O)Nc5cccc(OC(F)(F)F)c5F)c4cn3)cn2n1` [Compound 283, 1-(2-((2S,4R)-4-fluoro-2-(2-fluoro-3-(trifluoromethoxy)phenylcarbamoyl)pyrrolidin-1-yl)-2-oxoethyl)-5-(2-methylpyrazolo[1,5-a]pyrimidin-6-yl)-1H-pyrazolo[3,4-c]pyridine-3-carboxamide], below 1000 nM; for `Cc1cc2ncc(-c3ccc4c(c3)c(C(N)=O)nn4CC(=O)N3C[C@H](F)C[C@H]3C(=O)Nc3cccc(Br)n3)cn2n1` [Compound 284, 1-(2-((2S,4R)-2-(6-bromopyridin-2-ylcarbamoyl)-4-fluoropyrrolidin-1-yl)-2-oxoethyl)-5-(2-methylpyrazolo[1,5-a]pyrimidin-6-yl)-1H-indazole-3-carboxamide], below 1000 nM.
